Assay [1] addresses T1, human B1R receptor (Homo sapiens, UniProt P46663).
T1 construct: host or cells: CHO K1 cells (Chinese hamster ovary), stably transfected
T1 sequence (P46663 1-353): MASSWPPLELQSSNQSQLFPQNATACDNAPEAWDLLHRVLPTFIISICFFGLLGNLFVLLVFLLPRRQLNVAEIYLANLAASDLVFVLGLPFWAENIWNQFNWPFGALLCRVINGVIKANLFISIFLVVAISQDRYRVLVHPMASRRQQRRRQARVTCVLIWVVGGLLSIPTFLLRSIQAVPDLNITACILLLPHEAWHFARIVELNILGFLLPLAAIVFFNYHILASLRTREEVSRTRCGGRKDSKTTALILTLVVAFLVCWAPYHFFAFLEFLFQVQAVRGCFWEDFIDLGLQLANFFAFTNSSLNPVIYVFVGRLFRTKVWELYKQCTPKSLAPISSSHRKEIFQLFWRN
The assay can be described thus: Functional study on the bradykinin receptor 1 (B1R), FLIPR Ca2+ assay, hB1R cells. Particulars: agonist Lys-Des-Arg9-bradykinin 0.5 nM, % inhibition compared with the maximum achievable inhibition; for inhibition at 10 µM: CHO-K1, test substance 10 μM, read-out: B1R Antagonism, human [10 μM] % Inhibition. It counts as cell-based. In short, it runs like this: (§1)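 FLIPR Ca2+ read-out (Fluo-4, peak fluorescence) in stably transfected CHO K1 cells. Compounds at 10 μM, then 10 min later agonist challenge: human B1R with Lys-Des-Arg9-bradykinin 0.5 nM, rat B1R with Des-Arg9-bradykinin 100 nM; reported as % activation or % of maximal inhibition.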

The target of assay [2] is T2, B1R receptor of the rat (Rattus norvegicus, UniProt P97583).
T2 construct: host or cells: CHO K1 cells (Chinese hamster ovary), stably transfected
T2 sequence (P97583 1-337): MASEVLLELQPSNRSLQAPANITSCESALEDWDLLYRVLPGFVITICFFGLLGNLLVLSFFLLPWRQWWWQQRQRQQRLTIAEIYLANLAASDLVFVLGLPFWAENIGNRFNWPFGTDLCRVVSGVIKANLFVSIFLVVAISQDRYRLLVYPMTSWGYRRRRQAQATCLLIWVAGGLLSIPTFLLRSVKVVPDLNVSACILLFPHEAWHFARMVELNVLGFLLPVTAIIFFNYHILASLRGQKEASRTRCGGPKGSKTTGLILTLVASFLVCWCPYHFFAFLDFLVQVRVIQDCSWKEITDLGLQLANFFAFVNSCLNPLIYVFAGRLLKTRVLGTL
Kind of assay: Functional study on the bradykinin receptor 1 (B1R), FLIPR Ca2+ assay, rB1R cells. It counts as cell-based. Particulars: agonist Des-Arg9-bradykinin 100 nM, % inhibition compared with the maximum achievable inhibition; for inhibition at 10 µM: CHO-K1, test substance 10 μM, read-out: B1R Antagonism, rat [10 μM] % Inhibition. The procedure, abridged:
as §1

Molecules are shown by their SMILES. Counter-ions that a name gives are not always drawn.

The term inhibition denotes the drop in the measured response relative to a control, in per cent. Consider `COc1cc(C)c(S(=O)(=O)N2CCCCC2COCC(=O)N2CCCC2CN2CCCCC2)c(C)c1` (centres unmarked) [Example 399, 2-((1-(4-methoxy-2,6-dimethylphenylsulfonyl)piperidin-2-yl)methoxy)-1-(2-(piperidin-1-ylmethyl)pyrrolidin-1-yl)ethanone], for which the values for the inhibition at 10 µM in assay [1] and in assay [2] were 93% and 102%, respectively.

Take `COc1cc(C)c(S(=O)(=O)N2CCCC2COCC(=O)Nc2nc3ccccc3n2C)c(C)c1` (centres unmarked) [Example 504, 2-((1-(4-methoxy-2,6-dimethylphenylsulfonyl)pyrrolidin-2-yl)methoxy)-N-(1-methyl-1H-benzo[d]imidazol-2-yl)acetamide]: the values for the inhibition at 10 µM in assay [1] and in assay [2] were 24.2% and 90.6%, respectively.

Consider `COc1cc(C)c(S(=O)(=O)N2CCCCC2COCC(=O)N2CCN(Cc3cnc(N(C)C)nc3)CC2)c(C)c1` (centres unmarked) [Example 199, 1-(4-((2-(dimethylamino)pyrimidin-5-yl)methyl)piperazin-1-yl)-2-((1-(4-methoxy-2,6-dimethylphenylsulfonyl)piperidin-2-yl)methoxy)ethanone], for which the inhibition at 10 µM in assay [1] was found to be 104%; in assay [2] it was 101%.

In the case of `COc1cc(C)c(S(=O)(=O)N2CCCCC2COCC(=O)N2CCC(CCN3CCCC3)CC2)c(C)c1` (centres unmarked) [Example 94, 2-((1-(4-methoxy-2,6-dimethylphenylsulfonyl)piperidin-2-yl)methoxy)-1-(4-(2-(pyrrolidin-1-yl)ethyl)piperidin-1-yl)ethanone hydrochloride], the inhibition at 10 µM in assay [1] amounted to 105%; in assay [2] it was 103%.

On to `Cc1cc(C)c(S(=O)(=O)N2CCCCC2COCC(=O)NCc2ccccc2N2CCN(C)CC2)c(C)c1` (centres unmarked) [Example 80, N-[2-(4-methyl-piperazin-1-yl)-benzyl]-2-[1-(2,4,6-trimethyl-phenylsulfonyl)-piperidin-2-ylmethoxy]-acetamide], for which the inhibition at 10 µM in assay [1] came to 45.3%; in assay [2], 22.5%.

Turning to `CN1CCC(N2CCN(C(=O)COCC3CCCCN3S(=O)(=O)c3cccc4ccccc34)CC2)CC1` (centres unmarked) [Example 110, 1-(4-(1-methylpiperidin-4-yl)piperazin-1-yl)-2-((1-(naphthalen-1-ylsulfonyl)piperidin-2-yl)methoxy)ethanone], the inhibition at 10 µM in assay [1] and in assay [2] was 102% each time.

For the compound `COc1cc(C)c(S(=O)(=O)N2CCCCC2COCC(=O)N2CCN(c3nc4ccccc4s3)CC2)c(C)c1` (centres unmarked) [Example 526, 1-(4-(benzo[d]thiazol-2-yl)piperazin-1-yl)-2-((1-(4-methoxy-2,6-dimethylphenylsulfonyl)piperidin-2-yl)methoxy)ethanone], the figures for the inhibition at 10 µM in assay [1] and in assay [2] were 73.3% and 102%, respectively.

For `CN1CCC(N2CCN(C(=O)COCC3CCCCN3S(=O)(=O)c3cccc4cnccc34)CC2)CC1` (centres unmarked) [Example 176, 2-((1-(isoquinolin-5-ylsulfonyl)piperidin-2-yl)methoxy)-1-(4-(1-methylpiperidin-4-yl)piperazin-1-yl)ethanone dihydrochloride], the inhibition at 10 µM is -24.8% in assay [1] and 36.5% in assay [2].

For the compound `COc1cc(C)c(S(=O)(=O)N2CCCCC2COCC(=O)NCc2ccc(N3CCOCC3)cc2)c(C)c1` (centres unmarked) [Example 439, 2-((1-(4-methoxy-2,6-dimethylphenylsulfonyl)piperidin-2-yl)methoxy)-N-(4-morpholinobenzyl)acetamide], the “B1R Antagonism, human [10 μM] % Inhibition” value in assay [1] (test substance 10 μM, hB1R CHO K1 cells) was 48.25%. Besides, the “B1R Antagonism, rat [10 μM] % Inhibition” value in assay [2] (test substance 10 μM, rB1R CHO K1 cells) stood at 100.94%.

For `Cc1cc(C)c(S(=O)(=O)N2Cc3ccccc3CC2COCC(=O)N2CCN(C3CCN(C)CC3)CC2)c(C)c1` (centres unmarked) [Example 5, 1-[4-(1-methyl-piperidin-4-yl)-piperazin-1-yl]-2-[2-(2,4,6-trimethyl-phenylsulfonyl)-1,2,3,4-tetrahydro-isoquinolin-3-ylmethoxy]-ethanone], the inhibition at 10 µM in assay [1] and in assay [2] was 103% throughout.

`CN1CCCN(C(=O)COCC2CCCCN2S(=O)(=O)c2c(Cl)cccc2Cl)CC1` (centres unmarked) [Example 483, 2-((1-(2,6-dichlorophenylsulfonyl)piperidin-2-yl)methoxy)-1-(4-methyl-1,4-diazepan-1-yl)ethanone]: the inhibition at 10 µM is 103% in assay [1] and 104% in assay [2].

In the case of `O=C(COCC1CCCN1S(=O)(=O)c1c(Cl)cccc1Cl)N1CCN(CCc2ccccc2)CC1` (centres unmarked) [Example 326, 2-((1-(2,6-dichlorophenylsulfonyl)pyrrolidin-2-yl)methoxy)-1-(4-phenethylpiperazin-1-yl)ethanone], the results for the inhibition at 10 µM in assay [1] and in assay [2] were 104% and 101%, respectively.

In the case of `COc1cccc(N2CCN(C(=O)COCC3CCCCN3S(=O)(=O)c3c(C)cc(OC)cc3C)CC2)c1` (centres unmarked) [Example 288, 2-((1-(4-methoxy-2,6-dimethylphenylsulfonyl)piperidin-2-yl)methoxy)-1-(4-(3-methoxyphenyl)piperazin-1-yl)ethanone], the inhibition at 10 µM in assay [1] turned out to be 102%; in assay [2], 93.3%.

On to `COc1cc(C)c(S(=O)(=O)N2CCCCC2COCC(=O)N2CCN(Cc3ccc(C)cc3)CC2)c(C)c1` (centres unmarked) [Example 385, 2-((1-(4-methoxy-2,6-dimethylphenylsulfonyl)piperidin-2-yl)methoxy)-1-(4-(4-methylbenzyl)piperazin-1-yl)ethanone], for which the inhibition at 10 µM in assay [1] turned out to be 101%; in assay [2], 99.5%.

For `CN1CCN(C2CCN(C(=O)COCC3CCCCN3S(=O)(=O)c3c(Cl)cccc3Cl)CC2)CC1` (centres unmarked) [Example 278, 2-((1-(2,6-dichlorophenylsulfonyl)piperidin-2-yl)methoxy)-1-(4-(4-methylpiperazin-1-yl)piperidin-1-yl)ethanone], the inhibition at 10 µM in assay [1] is 104%; in assay [2], 96.9%.

On to `COc1cc(C)c(S(=O)(=O)N2CCCCC2COCC(=O)N2CCN(C3CCC(C(F)(F)F)CC3)CC2)c(C)c1` (centres unmarked) [Example 134, 2-((1-(4-methoxy-2,6-dimethylphenylsulfonyl)piperidin-2-yl)methoxy)-1-(4-(4-(trifluoromethyl)cyclohexyl)piperazin-1-yl)ethanone], for which the values for the inhibition at 10 µM in assay [1] and in assay [2] were 102% and 98.2%, respectively.

For `COc1cc(C)c(S(=O)(=O)N2CCCCC2COCC(=O)N2CCN(CCc3ccccc3)CC2)c(C)c1` (centres unmarked) [Example 373, 2-((1-(4-methoxy-2,6-dimethylphenylsulfonyl)piperidin-2-yl)methoxy)-1-(4-phenethylpiperazin-1-yl)ethanone], the inhibition at 10 µM came to 104% in assay [1] and 98.8% in assay [2].

Turning to `COc1cc(C)c(S(=O)(=O)N2CCCCC2COCC(=O)Nc2cc(-c3ccccc3OC)[nH]n2)c(C)c1` (centres unmarked) [Example 540, 2-((1-(4-methoxy-2,6-dimethylphenylsulfonyl)piperidin-2-yl)methoxy)-N-(5-(2-methoxyphenyl)-1H-pyrazol-3-yl)acetamide], the inhibition at 10 µM in assay [1] came out at 7.17%; in assay [2] it was 100%.

Consider `COc1cc(C)c(S(=O)(=O)N2CCCCC2COCC(=O)N2CCN(Cc3ccc(Cl)c(Cl)c3)CC2)c(C)c1` (centres unmarked) [Example 381, 1-(4-(3,4-dichlorobenzyl)piperazin-1-yl)-2-((1-(4-methoxy-2,6-dimethylphenylsulfonyl)piperidin-2-yl)methoxy)ethanone], for which the inhibition at 10 µM stood at 77.9% in assay [1] and 100% in assay [2].

As for `O=C(COCC1CCCN1S(=O)(=O)c1c(Cl)cc(Cl)cc1Cl)NCc1ccc(CN2CCCCC2)cc1` (centres unmarked) [Example 10, N-(4-piperidin-1-ylmethyl-benzyl)-2-[1-(2,4,6-trichloro-phenylsulfonyl)-pyrrolidin-2-ylmethoxy]-acetamide], the inhibition at 10 µM was 100% in assay [1] and 91.8% in assay [2].

Regarding `COc1cc(C)c(S(=O)(=O)N2CCCCC2COCC(=O)Nc2ccc3ccccc3n2)c(C)c1` (centres unmarked) [Example 546, 2-((1-(4-methoxy-2,6-dimethylphenylsulfonyl)piperidin-2-yl)methoxy)-N-(quinolin-2-yl)acetamide], the figures for the inhibition at 10 µM in assay [1] and in assay [2] were 7.44% and 104%, respectively.

For the compound `COc1cc(C)c(S(=O)(=O)N2CCCCC2COCC(=O)NCC(c2ccccc2Cl)N2CCOCC2)c(C)c1` (centres unmarked) [Example 251, N-(2-(2-chlorophenyl)-2-morpholinoethyl)-2-((1-(4-methoxy-2,6-dimethylphenylsulfonyl)piperidin-2-yl)methoxy)acetamide], the inhibition at 10 µM worked out at 45.8% in assay [1] and 98.5% in assay [2].
